Results from patent US20260347330A1, “N-METHYL-D-ASPARTATE RECEPTOR (NMDAR) ANTAGONISTS AND USES THEREOF” (Bexson Biomedical, Inc., priority 2022, published 2026).
Like-named read-outs stand apart in the source and are kept apart here.

Key:
[1] = molecular target: NMDAR; test: NMDA receptor [3H]-MK-801 competition radioligand binding in rat forebrain; settings: [3H]-MK-801 1 nM competition, 1 mM glutamate, 0.1 mM glycine, pH 7.4, 2 h ambient, N = 1-4
Procedure: (§1) Rat forebrains from 7-8 week old Sprague-Dawley rats (BioChemed, USA) were homogenized in a buffer containing 10 mM HEPES and 1 mM EDTA (pH 7.4) using a mechanical homogenizer (Janke-Kunkel Ultra-Turrax T25). A 10 mL volume was used per brain for all steps involving suspension of the brain homogenate tissue. The brain homogenate was then centrifuged (15 minutes at 20,000 RPM and 4 ° C). The supernatant was carefully poured off and the pellet was resuspended in fresh 10 mM HEPES and 1 mM EDTA containing buffer. This process was repeated 5 times. Following the 5th centrifugation, the buffer was replaced with a buffer containing 10 mM HEPES (pH 7.4). The homogenate was then incubated in a water bath at 37 ° C in the dark (covered with foil). Centrifugation was then repeated 3 additional times and after resuspending in the HEPES buffer, the final homogenate was aliquoted and stored at −80 ° C until use. Protein concentration of the homogenate was determined by utilizing the Bradford method using Coomassie protein assay reagent (Sigma, USA) with Bovine Serum albumin (Sigma, USA) as a standard.
At the time of the experiment, the homogenate was diluted to a final concentration of […] in 10 mM HEPES buffer, 1 mM glutamate, and 0.1 mM glycine (pH 7.4) and combined with 1 nM (+)-[3H]-MK-801 (Perkin Elmer NET972250UC), unlabeled competitor compounds at varying concentrations, or 30 uM MK-801 to determine non-specific binding, in a total volume of 1 mL in a 96 well plate. The protein homogenate is always added to the wells last. The plates were covered with aluminum foil, and placed on a mechanical shaker (250 RPM) for 2 h at ambient temperature ([…]). After 2 h, the homogenate was collected by vacuum filtration using a Unifilter-96 Cell Harvester (Perkin Elmer) over presoaked UniFilter-96 GF/C P Microplates (Perkin Elmer) and filters were washed with room temperature 10 mM HEPES buffer (pH 7.4) (3×1 mL). The filter plates were dried overnight in a fume hood. The next day, the bound tritium was measured via liquid scintillation counting with […] MicroScint-O (Perkin Elmer) added per well, using a MicroBeta2 Plate Reader with 6-detectors scintillation counter (Perkin Elmer) at 55% efficiency. IC50 value estimates were determined in GraphPad Prism 9.3.1 using non-linear regression (single site fit) with log-concentration plotted against percent specific binding. Ki values were calculated using the equation of Cheng and Prusoff. […] Experiments were performed in duplicate. N=1-4 per compound.

[2] = molecular target: T1, hSERT (Homo sapiens, UniProt P31645); test: SERT [3H]-citalopram competition radioligand binding, hSERT expressing HEK293 cell membranes
T1 construct: no vendor name is printed for this cell line) RBHSTM-K; host or cells: HEK293
T1 sequence (P31645 whole entry): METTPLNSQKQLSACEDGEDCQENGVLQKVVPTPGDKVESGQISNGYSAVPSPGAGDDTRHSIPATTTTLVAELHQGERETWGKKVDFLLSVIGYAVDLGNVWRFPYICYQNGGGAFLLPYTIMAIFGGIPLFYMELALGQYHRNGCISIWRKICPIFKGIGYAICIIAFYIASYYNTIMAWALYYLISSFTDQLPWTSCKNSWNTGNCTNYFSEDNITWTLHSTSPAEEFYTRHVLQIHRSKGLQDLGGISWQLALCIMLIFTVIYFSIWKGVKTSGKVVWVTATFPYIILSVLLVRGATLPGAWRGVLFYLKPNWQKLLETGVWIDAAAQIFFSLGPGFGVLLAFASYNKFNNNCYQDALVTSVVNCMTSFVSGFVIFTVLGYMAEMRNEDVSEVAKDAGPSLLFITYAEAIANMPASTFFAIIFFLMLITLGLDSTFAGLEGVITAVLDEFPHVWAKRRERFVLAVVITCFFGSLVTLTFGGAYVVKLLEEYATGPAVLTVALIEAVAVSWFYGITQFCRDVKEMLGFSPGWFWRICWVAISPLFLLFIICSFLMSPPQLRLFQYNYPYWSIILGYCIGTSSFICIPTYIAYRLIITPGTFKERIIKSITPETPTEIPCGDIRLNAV
Procedure: Valiscreen Serotonin Transporter (SERT) (Human) Cell Line (HEK293 host cells, Product No: RBHSTM-K) grown in DMEM/F12 media with 10% FBS, 0.1 mg/ml Geneticin, 1% GlutaMAX, and 1% Penicillin-Streptomycin added were used to prepare SERT membrane fractions. Cells were grown in 150 mm dishes and harvested between 70-90% confluency, passages 5-20. Cells were detached using a buffer containing 1 mM HEPES and 2 mM EDTA (pH 7.4). After detachment, the cells were homogenized using a handheld homogenizer, and the lysate was centrifuged (30 minutes at 30,000×G) at 4 ° C The resulting pellet was resuspended in storage buffer containing 20 mM HEPES, 10 mM MgCl2, 0.1 mM EDTA, and 10% sucrose at pH 7.4. Protein concentration was determined via the Bradford method using Coomassie protein assay reagent (Sigma, USA) with Bovine Serum albumin (Sigma, USA) as standard.
Buffer containing 10 mM HEPES, 120 mM NaCl, and 5 mM KCl (pH 7.4) was added to SERT membranes to dilute to a final protein concentration of 5 µg/mL per well. Additionally, 0.5 nM [3H]-Citalopram (Perkin Elmer NET1039250UC) was added, along with unlabeled competitors at various concentrations or […] citalopram for nonspecific binding controls, bringing the total volume to 1 ml in a 96 well plate. SERT membranes were always added last to each well. The plates were covered from light with aluminum foil and incubated at ambient temperature ([…]) and placed on a mechanical shaker (250RPM) for 2 h. After 2 h, SERT protein was captured via vacuum filtration using a Unifilter-96 Cell Harvester (Perkin Elmer) over presoaked UniFilter-96 GF/C P Microplates (Perkin Elmer) and filters were washed with room temperature 10 mM HEPES, 120 mM NaCl, and 5 mM KCl buffer (pH 7.4) (3×1 mL). The filter plates were dried overnight in a fume hood. The next day, the SERT bound tritium was measured via liquid scintillation counting with MicroScint-O (Perkin Elmer), using a MicroBeta2 Plate Reader with 6-detectors scintillation counter (Perkin Elmer) at 55% efficiency. IC50 value estimates were determined in GraphPad Prism 9.3.1 using non-linear regression (single site fit) with log-concentration plotted against percent specific binding. […] For each experiments compounds were run in duplicate. N=1-3 repeats per compound.

[3] = molecular target: T2, human Dopamine Transporter (Homo sapiens, UniProt Q01959); test: Human dopamine reuptake transporter (DAT) inhibition functional study, ASP+ uptake in CHO cells; format: cell-based; settings: at 10,000 nM, 10 μM ASP+, 1 h, CHO cells stably expressing human DAT
T2 construct: host or cells: CHO
T2 sequence (Q01959 whole entry): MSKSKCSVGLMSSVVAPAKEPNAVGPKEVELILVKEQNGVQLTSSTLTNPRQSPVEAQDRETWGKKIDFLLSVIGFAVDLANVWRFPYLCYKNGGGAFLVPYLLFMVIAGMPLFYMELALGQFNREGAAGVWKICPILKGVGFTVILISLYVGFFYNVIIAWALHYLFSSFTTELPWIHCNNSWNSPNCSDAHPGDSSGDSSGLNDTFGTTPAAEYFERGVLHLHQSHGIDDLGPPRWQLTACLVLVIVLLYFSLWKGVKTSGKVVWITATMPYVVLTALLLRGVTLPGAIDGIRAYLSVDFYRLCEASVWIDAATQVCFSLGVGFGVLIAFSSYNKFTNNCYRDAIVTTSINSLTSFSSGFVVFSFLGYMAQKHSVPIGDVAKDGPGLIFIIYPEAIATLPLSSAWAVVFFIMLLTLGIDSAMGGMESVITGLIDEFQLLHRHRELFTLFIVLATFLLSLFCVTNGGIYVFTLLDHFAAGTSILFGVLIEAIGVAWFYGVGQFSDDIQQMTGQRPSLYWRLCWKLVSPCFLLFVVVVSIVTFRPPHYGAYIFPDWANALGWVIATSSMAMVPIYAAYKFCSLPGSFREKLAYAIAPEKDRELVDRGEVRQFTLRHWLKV
Procedure: CHO cells stably expressing human Dopamine Transporter Protein (Valiscreen® Perkin Elmer RBHDATM-K) were cultured in 150 mm Tissue Culture dishes (Cell Treat 229651) at 37 ° C and 5% CO2. Ham's F-12 Nutrient Mix (Gibco, USA) was supplemented with 10% dialyzed FBS (Gibco, USA), 100 µg/ml Geneticin (Gibco, USA), and 100 units/ml Penicillin and Streptomycin (Gibco, USA) as the culture media. Cells were maintained on a consistent splitting and assay schedule and utilized until passage 30 (no change in control experiments were observed up to this point).
Cells were detached from their growth dishes using Trypsin-EDTA (0.25%) (Gibco, USA) at 70-80% confluency. The cells were counted and diluted in culture media to a density of 300,000 cells/mL. 200 µl of this mixture was added to each well of a clear bottom, black-walled 96 well plate (Coming 3603, USA). Plates were incubated in the laminar flow hood for one hour prior to being placed in the cell culture incubator in order to encourage even cell distribution across the entire well surface.
The next day, Krebs-Ringer HEPES (KRH) Buffer pH 7.4 was prepared (10 mM HEPES, 130 mM NaCl, 1.3 mM KCl, 2.2 mM CaCl2, 1.2 mM MgSO4, 1.2 mM KH2PO4) and titrated with 6N NaOH. This buffer was stored in a 4 ° C refrigerator for up to 4 days (after which it was discarded). Additionally, a solution containing KRH buffer and 330 µM Trypan Blue (Sigma T6146-25G), a solution of 20 mM ASP+(MedChem Express, NJ, USA) dissolved in DMSO, were both prepared. The 20 mM DMSO stock of ASP+ was diluted to a working concentration of 40 µM in KRH buffer. DMSO solutions of 40 mM GBR-12935 dihydrochloride (MedChem Express, NJ, USA) and 40 mM test compounds were also prepared. DMSO solutions of test compounds were then diluted to a range of […]-40 μM in KRH Buffer with 1% additional DMSO added to provide consistent DMSO concentration in all samples. […] The final DMSO concentration in each well was 0.3%. […] KRH buffer with DMSO “vehicle control” served as the total fluorescence control to represent the maximum amount of substrate uptake without DAT transporter inhibition.
At the time of assay, cell media was carefully removed from the wells via pipette aspiration. 100 μL of KRH buffer was then added to all wells. Both controls, non-specific and total fluorescence stock solutions were then added to the plate (50 µL of either 400 µM GBR-12935 or KRH DMSO buffer respectively). Additionally, GBR-12935 and test compounds were added to the plate ([…] for each sample). The 10,000 nM concentration of test compound was run in triplicate wells. Next, […] ASP+(final concentration of 10 μM) was added to each well initiating the experiment. Cells were placed in the cell culture incubator for one hour, at which point 20 µL of 330 µM Trypan Blue was added to each well to quench extracellular fluorescence. The cells were then placed in the microplate reader (BioTek Synergy Neo 2), using Gen5 Ver 3.11 software. The reader was preheated to 37 ° C and following a brief orbital shake, intracellular fluorescence was measured using a fluorescence intensity reading. Intracellular ASP+ was excited at 430 nm and emission read at 510 nm via a bottom read using the extended gain settings and high lamp energy setting.

[4] = molecular target: NMDAR; test: Homologous binding experiments with MK-801; settings: rat forebrain
Procedure: as §1, with “The homogenate was then incubated in a water bath at 37 ° C in the dark (covered with foil). Centrifugation was then repeated 3 additional times and after resuspending in the HEPES buffer, the final homogenate was aliquoted and stored at −80 ° C until use.” left out
At the time of the experiment, the homogenate was diluted to a final concentration of […] in 10 mM HEPES buffer, 1 mM glutamate, and 0.1 mM glycine (pH 7.4) and combined with 1 nM (+)-[3H]-MK-801 (Perkin Elmer NET972250UC), unlabeled competitor compounds at varying concentrations, or 30 uM MK-801 to determine non-specific binding, in a total volume of 1 mL in a 96 well plate. […] IC50 value estimates were determined in GraphPad Prism 9.3.1 using non-linear regression (single site fit) with log-concentration plotted against percent specific binding. […]

[5] = 0.5 nM [3H]-citalopram competition, hSERT HEK293 membranes, pH 7.4, 2 h ambient, N = 1, read-out: SERT pKi (converted)

Compound	NMDAR binding affinity pKi (mean ± SEM) [1]	IC50 [2] [nM]	inhibition at 10 µM [3] [%]	Ki [2, 5] [nM]	Kd [4] [nM]	Ki [2] [nM]
CC(N)(c1ccccc1)C1CCCC1 (stereo not shown) [Compound 3, 1-cyclopentyl-1-phenylethan-1-amine]	7.11 ± 0.041	> 10000	16.8			
CC(c1ccccc1)(C1CCCCC1)N1CCCCC1 (stereo not shown) [Compound 23, 1-(1-cyclohexyl-1-phenylethyl)piperidine]	5.52 ± .118		71.6	2630		
NC(c1ccccc1)(C1CCCC1)C1CC1 (stereo not shown) [Compound 5, Cyclopentyl(cyclopropyl)(phenyl)methanamine]	6.23 ± 0.046	> 10000	1.3			
CC(N)(c1ccccc1)C1CCCCC1 (stereo not shown) [Compound 11, 1-cyclohexyl-1-phenylethan-1-amine]	6.09 ± 0.120	> 10000	11.7			
NC(CC1CCC1)(c1ccccc1)C1CCCC1 (stereo not shown) [Compound 9, 2-cyclobutyl-1-cyclopentyl-1-phenylethan-1-amine]	5.80 ± 0.095	> 10000	-4			
C[C@]12N[C@H](Cc3ccccc31)c1ccccc12 [MK-801]					1.67	
CNC(C)(c1ccccc1)C1CCCC1 (stereo not shown) [Compound 15, 1-cyclopentyl-N-methyl-1-phenylethan-1-amine]	6.56 ± 0.064		18.2			501
CC(C)NC(C)(c1ccccc1)C1CCCC1 (stereo not shown) [Compound 19, N-(1-cyclopentyl-1-phenylethyl)propan-2-amine]	7.34 ± 0.041		39.2	151		
C=CCC(N)(c1ccccc1)C1CCCC1 (stereo not shown) [Compound 6, 1-cyclopentyl-1-phenylbut-3-en-1-amine]	5.89 ± 0.072		23.1			3160
CCC(N)(c1ccccc1)C1CCCC1 (stereo not shown) [Compound 4, 1-cyclopentyl-1-phenylpropan-1-amine]	6.64 ± 0.101	> 10000	24.3			
CCNC(C)(c1ccccc1)C1CCCC1 (stereo not shown) [Compound 16, 1-cyclopentyl-N-ethyl-1-phenylethan-1-amine]	6.93 ± 0.073		16	1120		
